Measured values from patent publication US5795907A, “Gastin and CCK receptor ligands” (James Black Foundation Limited, priority 1994, dated 1998).

Key:
[1] = target: T1, gastrin (Rattus norvegicus, UniProt P30553); assay: gastrin antagonist activity in an immature rat stomach assay (pentagastrin-stimulated acid secretion); settings: cumulative pentagastrin dose-response curves after 60 min with drug; for Kb: read-out: Gastrin pKB (converted)
T1 construct: The stomach was lowered into a jacketed organ bath containing 40 ml of buffered solution; from tissue; host or cells: isolated perfused whole stomach of immature rats (ca. 21 days old)
T1 sequence (P30553 1-452): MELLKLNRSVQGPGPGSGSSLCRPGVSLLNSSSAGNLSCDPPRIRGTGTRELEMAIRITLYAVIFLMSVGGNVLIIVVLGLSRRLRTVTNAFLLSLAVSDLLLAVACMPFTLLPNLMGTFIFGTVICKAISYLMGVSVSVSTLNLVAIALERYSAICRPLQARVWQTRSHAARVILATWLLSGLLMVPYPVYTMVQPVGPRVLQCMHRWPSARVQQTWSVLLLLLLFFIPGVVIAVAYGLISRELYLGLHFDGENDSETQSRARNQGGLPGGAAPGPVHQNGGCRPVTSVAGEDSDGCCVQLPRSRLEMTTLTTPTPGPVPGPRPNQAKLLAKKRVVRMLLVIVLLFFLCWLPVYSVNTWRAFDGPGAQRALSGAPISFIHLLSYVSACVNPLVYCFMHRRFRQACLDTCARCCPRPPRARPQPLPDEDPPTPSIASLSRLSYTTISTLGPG
Outline: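 Isolated lumen-perfused immature rat stomach (33-50 g, ca. 21 days) in 37° organ bath with 3×10^-8 M 5-methylfurmethide; acid secretion read by pH electrode in perfusate. Compound added to serosal bath after 120 min stabilisation; cumulative pentagastrin dose-response curves begun 60 min later and analysed by the Black et al. method.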

[2] = target: T2, CCKA (Cavia porcellus, UniProt Q63931); assay: CCKA radioligand binding assay in guinea-pig pancreas membranes ([125I]-CCK8(S)); settings: PD134,308 present, 150 minutes at 21±3°; for Ki: read-out: CCKA pKi (converted)
T2 construct: The pancreatata were homogenised in 40 ml ice-cold HEPES buffer using a polytron; from tissue; host or cells: pancreas membranes of male Dunkin Hartley guinea-pigs
T2 sequence (Q63931 1-430): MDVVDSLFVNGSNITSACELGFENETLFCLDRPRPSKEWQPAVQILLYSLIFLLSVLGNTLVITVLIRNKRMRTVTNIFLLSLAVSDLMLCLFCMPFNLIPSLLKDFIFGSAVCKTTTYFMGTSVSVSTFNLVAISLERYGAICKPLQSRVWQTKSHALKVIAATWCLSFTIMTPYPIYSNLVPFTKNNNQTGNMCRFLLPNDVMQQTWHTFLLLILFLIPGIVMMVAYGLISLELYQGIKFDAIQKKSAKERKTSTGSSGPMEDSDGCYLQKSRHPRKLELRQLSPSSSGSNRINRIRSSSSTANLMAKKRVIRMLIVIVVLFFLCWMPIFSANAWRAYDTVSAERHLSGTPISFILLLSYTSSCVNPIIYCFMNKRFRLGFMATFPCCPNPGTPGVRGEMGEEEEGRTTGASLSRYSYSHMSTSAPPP
Outline: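 Male guinea-pig pancreas membranes (1 mg/ml wet tissue in HEPES pH 7.2, suspension containing 0.375 μM PD134,308) were incubated 150 min at 21±3° with [125I]-CCK8(S) ([…] added solution) and competitor. Non-specific binding used 100 nM L-364,718 (added solution). Bound radioligand was measured by GF/B filtration and gamma counting.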

[3] = target: T3, CCKB receptor (Mus musculus, UniProt P56481); assay: CCKB receptor radioligand binding assay in mouse cortical membranes ([125I]-CCK8S); settings: [125I]-CCK8S 200 pM, 150 min at 21±3°; for Ki: read-out: CCKB pKi (converted)
T3 construct: The cortex was dissected, weighed and homogenised in 40ml ice-cold buffer; tissue Charles River (supplier of the CD1 mice); host or cells: cerebral cortex membranes of male CD1 mice
T3 sequence (P56481 1-453): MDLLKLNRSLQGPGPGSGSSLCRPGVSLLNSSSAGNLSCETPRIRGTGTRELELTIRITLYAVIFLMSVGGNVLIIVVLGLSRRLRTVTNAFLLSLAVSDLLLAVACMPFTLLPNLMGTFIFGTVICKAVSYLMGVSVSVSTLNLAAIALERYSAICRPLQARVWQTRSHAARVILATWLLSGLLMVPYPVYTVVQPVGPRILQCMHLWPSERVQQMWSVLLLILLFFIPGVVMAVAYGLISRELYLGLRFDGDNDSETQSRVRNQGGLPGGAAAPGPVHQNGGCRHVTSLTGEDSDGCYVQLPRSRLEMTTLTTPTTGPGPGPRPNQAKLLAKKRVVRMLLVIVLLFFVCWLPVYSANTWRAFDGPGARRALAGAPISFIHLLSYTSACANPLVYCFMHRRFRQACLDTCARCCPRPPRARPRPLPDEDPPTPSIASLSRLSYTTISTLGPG
Outline: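 Cortical membranes from male CD1 mice in HEPES buffer (pH 7.2; NaCl, KCl, MgCl2, EDTA, bacitracin) were incubated with competing compound and [125I]-CCK8S (added as a 200 pM solution) for 150 min at 21±3°. Non-specific binding was defined with L-365,260. Bound tracer was separated by GF/B filtration and counted by gamma counting.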

Row | Molecule | Kb [1] | Ki [2] | Ki [3] | Gastrin pKB [1] | CCKA pKi [2] | CCKB pKi [3]
1 | O=C(NCC12CC3CC(CC(C3)C1)C2)c1cc2nc[nH]c2cc1C(=O)N[C@@H](Cc1ccccc1)C(=O)Nc1cc(C=NO)cc(C=NO)c1 [Example 118, 5-(1S-(3,5-dihydroxyiminomethylenephenylaminocarbonyl)-2-phenylethylaminocarbonyl)-6-(1-adamantanemethylaminocarbonyl)-benzimidazole] | 200 nM | 501 nM | 200 nM |  |  | 
2 | O=C(O)c1cc(NC(=O)[C@H](Cc2ccccc2)NC(=O)c2cc3ccsc3cc2C(=O)NCC23CC4CC(CC(C4)C2)C3)cc(C(=O)O)c1 [Example 125, 5-(1S-(3,5-dicarboxyphenylaminocarbonyl)-2-phenylethylaminocarbonyl)-6-(1-adamantanemethylaminocarbonyl)-benzothiophene] |  |  |  | 9.4 | 5.7 | 8.9
3 | C[C@H](NC(=O)c1cc2[nH]cnc2cc1C(=O)NCC12CC3CC(CC(C3)C1)C2)C(=O)Nc1cc(C(=O)O)cc(C(=O)O)c1 [Example 71, 5-(1S-(3,5-dicarboxyphenylaminocarbonyl)-ethylaminocarbonyl)-6-(1-adamantanemethylaminocarbonyl)-benzimidazole] | 100 nM | 5010 nM | 398 nM |  |  | 
4 | COC(=O)[C@H]1CCCN1C(=O)c1cc2ccccc2cc1C(=O)NCC12CC3CC(CC(C3)C1)C2 [Example 7, 2-(2R-methoxycarbonylpyrrolidino-carbonyl)-3-(1-adamantanemethylaminocarbonyl)-naphthalene] | 398 nM | 1580 nM | 1580 nM |  |  | 
5 | O=C(O)c1cccc(NC(=O)[C@H](Cc2ccccc2)NC(=O)c2cc3[nH]cnc3cc2C(=O)NCC23CC4CC(CC(C4)C2)C3)c1 [Example 79, 5-(1S-(3-carboxyphenylaminocarbonyl)-2-phenylethylaminocarbonyl)-6-(1-adamantanemethylaminocarbonyl)-benzimidazole] | 100 nM | 1000 nM | 20 nM |  |  | 
6 | O=C(O)c1cc2ccccc2cc1C(=O)NCC12CC3CC(CC(C3)C1)C2 [Example 1, 3-(1-adamantanemethylaminocarbonyl)-2-naphthoic acid] | 1580 nM | 7940 nM | 3160 nM |  |  | 
7 | 5-(1S-(3,5-dicarboxyphenylaminocarbonyl)-2-phenylethylaminocarbonyl)-6-(1-adamantanemethyl-N-methylaminocarbonyl)-indole and regioisomer with substituents at positions 5 and 6 reversed [Example 41] |  |  |  | 7.8 | 5.7 | 7.8
8 | O=C(O)c1cc(NC(=O)C(Cc2ccc(F)cc2F)NC(=O)c2cc3[nH]cnc3cc2C(=O)NCC23CC4CC(CC(C4)C2)C3)cc(C(=O)O)c1 (racemic) [Example 85, (±)-5-(1-(3,5-dicarboxyphenylaminocarbonyl)-2-(2,4-difluorophenyl)ethylaminocarbonyl)-6-(1-adamantanemethylaminocarbonyl)-benzimidazole] | 1.26 nM | 3160 nM | 5.01 nM |  |  | 
9 | 5-(1S-(3,5-dicarboxyphenylaminocarbonyl)-2-phenylethylaminocarbonyl)-6-(1-adamantanemethylaminocarbonyl)-benzofuran [Example 122] |  |  |  | 9.1 | 5.4 | 8.3
10 | O=C(O)c1cc(NC(=O)[C@H](Cc2ccc(I)cc2)NC(=O)c2cc3[nH]cnc3cc2C(=O)NCC23CC4CC(CC(C4)C2)C3)cc(C(=O)O)c1 [Example 134, 5-(1S-(3,5-dicarboxyphenylaminocarbonyl)-2-(4-iodophenyl)ethylaminocarbonyl)-6-(1-adamantanemethylaminocarbonyl)-benzimidazole] | 1.58 nM | 794 nM | 25.1 nM |  |  | 
11 | O=C(O)c1cc(NC(=O)[C@H](Cc2ccccc2)NC(=O)c2c(C(=O)NCC34CC5CC(CC(C5)C3)C4)ccc3[nH]cnc23)cc(C(=O)O)c1 [Example 113, 4-(1S-(3,5-dicarboxyphenylaminocarbonyl)-2-phenylethylaminocarbonyl)-5-(1-adamantanemethylaminocarbonyl)-benzimidazole] |  |  |  | 7.2 | 5.2 | 6.9
12 | O=C(O)c1cc(NC(=O)[C@H](Cc2ccccc2F)NC(=O)c2cc3[nH]ccc3cc2C(=O)NCC23CC4CC(CC(C4)C2)C3)cc(C(=O)O)c1 [Example 88, 6-(1S-(3,5-dicarboxyphenylaminocarbonyl)-2-(2-25 fluorophenyl)ethylaminocarbonyl)-5-(1-adamantaneinetnyl-aminocarbonyl)-indole] | 2.51 nM | 2510 nM | 5.01 nM |  |  | 
13 | O=C(O)c1cc(NC(=O)[C@H](Cc2ccccc2)NC(=O)c2cc3cc[nH]c3cc2C(=O)NCC2CCC(O)CC2)cc(C(=O)O)c1 (single isomer, unassigned) [Example 109, 5-(1S-(3,5-dicarboxyphenylaminocarbonyl)-2-phenylethylaminocarbonyl)-6-(4-hydroxycyclohexanemethylaminocarbonyl)-indole] | 126 nM | > 10000 nM | 200 nM |  |  | 
14 | O=C(O)c1cc(NC(=O)[C@H](Cc2cccc(F)c2)NC(=O)c2cc3[nH]cnc3cc2C(=O)NCC23CC4CC(CC(C4)C2)C3)cc(C(=O)O)c1 [Example 131, 5-(1S-(3,5-dicarboxyphenylaminocarbonyl)-2-(3-fluorophenyl)ethylaminocarbonyl)-6-(1-adamantanemethylaminocarbonyl)-benzimidazole] | 0.2 nM | 5010 nM | 3.98 nM |  |  | 
15 | Cn1ccc2cc(C(=O)NCC34CC5CC(CC(C5)C3)C4)c(C(=O)N[C@@H](Cc3ccccc3)C(=O)Nc3cc(C(=O)O)cc(C(=O)O)c3)cc21 [Example 37, 6-(1S-(3,5-dicarboxyphenylaminocarbonyl)-2-phenylethylaminocarbonyl)-5-(1-adamantanemethylaminocarbonyl)-N-methyl-indole] | 3.98 nM | 2510 nM | 3.98 nM |  |  | 
16 | C[C@@H](NC(=O)C[C@@H]1CCCN1C(=O)c1cc2ccccc2cc1C(=O)NCC12CC3CC(CC(C3)C1)C2)C(=O)O [Example 16, 2-(2S-(1R-carboxyethylaminocarbonylmethyl)-pyrrolidinocarbonyl)-3-(1-adamantanemethylaminocarbonyl)-naphthalene] |  |  |  | 6.2 | 5.5 | 5.6
17 | O=C(O)c1cc(NC(=O)[C@H](Cc2ccc(F)cc2)NC(=O)c2cc3[nH]cnc3cc2C(=O)NCC23CC4CC(CC(C4)C2)C3)cc(C(=O)O)c1 [Example 132, 5-(1S-(3,5-dicarboxyphenylaminocarbonyl)-2-(4-fluorophenyl)ethylaminocarbonyl)-6-(1-adamantanemethylaminocarbonyl)-benzimidazole] | 1 nM | 3980 nM | 3.98 nM |  |  | 
